ChEMBL document CHEMBL4808208, “Hepatoselective Dihydroquinolizinone Bis-acids for HBsAg mRNA Degradation” (ACS Med Chem Lett, 2021)
Where “and” joins values, the source holds several entries; their conditions need not be identical. Identical values can stand only once.

Columns and labels:
Cytochrome P450 3A4 = Cytochrome P450 3A4 (Homo sapiens, UniProt P08684); experiment: Inhibition of CYP3A4 in human liver microsomes using midazolam as substrate preincubated for 5 mins followed by NADPH addition by LC-MS/MS analysis; assay type: ADME
[1] = Ratio of Cmax in liver to plasma in CD-1 mouse at 8 mg/kg, po by LC-MS/MS analysis; assay type: ADME, organism-based
[2] = Drug concentration in CD-1 mouse liver at 8 mg/kg, po measured after 30 mins by LC-MS/MS analysis; assay type: ADME, organism-based; details: read-out: Ct
Hepatitis B virus = experiment: Antiviral activity against Hepatitis B virus infected in human HepG2.2.15 cells assessed as reduction in HBsAg level measured after 4 days by AlphaLisa assay; assay type: functional, organism-based; details: HepG2.2.15, 96 h
[3] = Clearance in CD-1 mouse at 3 mg/kg, iv measured for 24 hrs by LC-MS/MS analysis; assay type: ADME, organism-based; details: in vivo
[4] = Metabolic stability in mouse liver microsomes assessed as clearance preincubated with compound for 10 mins followed by NADPH regenerating system addition and measured per mg protein for 60 mins by LC/MS-MS analysis; assay type: ADME, Microsome; details: time 70 min, read-out: CLH
OATP1B1 = experiment: Ratio of drug uptake in HEK293 cells transfected with OATP1B1 (unknown origin) in absence of transporter inhibitor, estradiol-17beta-glucuronide to drug uptake in HEK293 cells in absence of transporter inhibitor, estradiol-17beta-glucuronide by LC-MS/MS analysis; assay type: ADME, cell-based; details: human, HEK293 cells transfected with OATP1B1 versus HEK293 cells
[5] = molecular target: Terminal nucleotidyltransferase 4A (Homo sapiens) (UniProt Q5XG87); experiment: Inhibition of human PAPD7 expressed in HEK293 cells assessed as inhibition of poly-adenylation reaction using P32-labeled RNA oligonucleotides (5'-GCCUUUCAUCUCUAACUGCGAAAAAAAAAA-3') as substrate measured for 3 hrs by phosphor imaging analysis; assay type: cell-based; details: dose 0.37-10 µM
[6] = AUC (last) in CD-1 mouse plasma at 3 mg/kg, iv measured for 24 hrs by LC-MS/MS analysis; assay type: ADME, organism-based; design: route intravenous, time 24 hrs, dose 3 mg/kg
[7] = Cytotoxicity against human HepG2.2.15 cells assessed as reduction in cell viability measured after 4 days by CellTiter-Glo reagent based assay; design: species or system HepG2 2.2.15; details: time 4 day
[8] = Drug concentration in CD-1 mouse liver at 8 mg/kg, po measured after 15 mins by LC-MS/MS analysis; assay type: ADME, organism-based; details: read-out: Ct
OATP1B3 = experiment: Ratio of drug uptake in HEK293 cells transfected with OATP1B3 (unknown origin) in absence of transporter inhibitor, estradiol-17beta-glucuronide to drug uptake in HEK293 cells in absence of transporter inhibitor, estradiol-17beta-glucuronide by LC-MS/MS analysis; assay type: ADME, cell-based; details: human, HEK293 cells transfected with OATP1B3 versus HEK293 cells
[9] = Apparent permeability of the compound across apical to basolateral side in human Caco-2 cells at 10 uM incubated for 1 hr; assay type: ADME, cell-based
[10] = Apparent permeability across basolateral to apical side in MDCK-MDR1 cells at 1 uM measured after 120 mins by LC-MS/MS analysis; assay type: ADME, cell-based, Canis lupus familiaris; details: dog
[11] = molecular target: T1, Solute carrier organic anion transporter family member 1B1 (Homo sapiens, UniProt Q9Y6L6); experiment: Substrate activity at OATP1B1 (unknown origin) expressed in HEK293 cells assessed as ratio of drug uptake in absence of transporter inhibitor,estradiol-17beta-glucuronide to drug uptake in presence of transporter inhibitor, estradiol-17beta-glucuronide by LC-MS/MS analysis; assay type: ADME, cell-based
T1 sequence (Q9Y6L6 whole entry): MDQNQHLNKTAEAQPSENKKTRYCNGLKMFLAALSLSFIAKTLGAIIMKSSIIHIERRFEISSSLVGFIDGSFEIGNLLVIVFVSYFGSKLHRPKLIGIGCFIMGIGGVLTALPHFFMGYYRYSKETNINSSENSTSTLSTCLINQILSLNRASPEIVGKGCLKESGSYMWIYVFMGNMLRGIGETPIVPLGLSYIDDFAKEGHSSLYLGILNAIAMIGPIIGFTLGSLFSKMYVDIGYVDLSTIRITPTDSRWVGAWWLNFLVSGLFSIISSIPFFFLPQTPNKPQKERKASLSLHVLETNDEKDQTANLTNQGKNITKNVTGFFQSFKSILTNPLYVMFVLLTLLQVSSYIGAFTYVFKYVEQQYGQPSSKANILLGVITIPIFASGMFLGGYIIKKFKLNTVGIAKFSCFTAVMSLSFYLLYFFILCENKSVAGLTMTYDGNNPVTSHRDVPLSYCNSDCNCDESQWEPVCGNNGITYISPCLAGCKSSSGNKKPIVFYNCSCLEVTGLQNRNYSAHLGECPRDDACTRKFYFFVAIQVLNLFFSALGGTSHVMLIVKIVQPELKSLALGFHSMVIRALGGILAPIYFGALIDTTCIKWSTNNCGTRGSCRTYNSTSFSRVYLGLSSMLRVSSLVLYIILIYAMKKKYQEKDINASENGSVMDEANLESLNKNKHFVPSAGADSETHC

[12] = Apparent permeability across apical to basolateral side in MDCK-MDR1 cells at 1 uM measured after 120 mins by LC-MS/MS analysis; assay type: ADME, cell-based, Canis lupus familiaris; details: dog
Cytochrome P450 2E1 = Cytochrome P450 2E1 (Homo sapiens, UniProt P05181); experiment: Inhibition of CYP2E1 in human liver microsomes using chlorzoxazone as substrate preincubated for 5 mins followed by NADPH addition by LC-MS/MS analysis; assay type: ADME
[13] = AUC (last) in CD-1 mouse plasma at 8 mg/kg, po measured for 24 hrs by LC-MS/MS analysis; assay type: ADME, organism-based; design: route oral, dose 8 mg/kg, time 24 hrs
[14] = Half life in CD-1 mouse plasma at 3 mg/kg, iv measured for 24 hrs by LC-MS/MS analysis; assay type: ADME, organism-based
[15] = Metabolic stability in mouse liver microsomes assessed as half life preincubated with compound for 10 mins followed by NADPH regenerating system addition and measured for 60 mins by LC/MS-MS analysis; assay type: ADME, Microsome; details: time 70 min
[16] = Half life in CD-1 mouse liver at 8 mg/kg, po measured for 24 hrs by LC-MS/MS analysis; assay type: ADME, organism-based
Cytochrome P450 2C9 = Cytochrome P450 2C9 (Homo sapiens, UniProt P11712); experiment: Inhibition of CYP2C9 in human liver microsomes using tolbutamide as substrate preincubated for 5 mins followed by NADPH addition by LC-MS/MS analysis; assay type: ADME
[17] = Efflux ratio of apparent permeability in MDCK-MDR1 cells at 1 uM after 120 mins by LC-MS/MS analysis; assay type: ADME, cell-based, Canis lupus familiaris; details: dog

Terminal nucleotidyltransferase 4A (Homo sapiens), sequence (Q5XG87 whole entry): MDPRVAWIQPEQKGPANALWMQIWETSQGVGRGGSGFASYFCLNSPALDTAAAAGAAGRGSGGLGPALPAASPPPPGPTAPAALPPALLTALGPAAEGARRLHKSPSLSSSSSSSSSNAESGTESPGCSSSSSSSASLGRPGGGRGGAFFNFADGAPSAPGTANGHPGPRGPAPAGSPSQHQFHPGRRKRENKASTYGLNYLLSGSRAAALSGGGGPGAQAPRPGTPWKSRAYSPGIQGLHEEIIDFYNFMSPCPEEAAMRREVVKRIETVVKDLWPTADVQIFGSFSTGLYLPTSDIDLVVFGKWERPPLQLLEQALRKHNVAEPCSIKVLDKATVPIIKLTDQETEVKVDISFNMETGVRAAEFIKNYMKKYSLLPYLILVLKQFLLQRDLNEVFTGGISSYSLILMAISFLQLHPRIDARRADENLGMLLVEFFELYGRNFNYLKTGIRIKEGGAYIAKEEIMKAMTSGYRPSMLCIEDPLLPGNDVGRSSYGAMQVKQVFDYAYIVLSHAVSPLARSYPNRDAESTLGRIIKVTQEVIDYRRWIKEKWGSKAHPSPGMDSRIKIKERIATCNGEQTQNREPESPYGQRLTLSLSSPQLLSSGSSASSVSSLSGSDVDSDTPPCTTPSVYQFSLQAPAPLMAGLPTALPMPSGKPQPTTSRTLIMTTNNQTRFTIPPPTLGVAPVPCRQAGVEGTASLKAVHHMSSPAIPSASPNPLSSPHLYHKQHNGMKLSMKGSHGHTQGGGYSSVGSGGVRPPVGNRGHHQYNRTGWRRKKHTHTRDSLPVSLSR
Cytochrome P450 3A4, sequence (P08684 whole entry): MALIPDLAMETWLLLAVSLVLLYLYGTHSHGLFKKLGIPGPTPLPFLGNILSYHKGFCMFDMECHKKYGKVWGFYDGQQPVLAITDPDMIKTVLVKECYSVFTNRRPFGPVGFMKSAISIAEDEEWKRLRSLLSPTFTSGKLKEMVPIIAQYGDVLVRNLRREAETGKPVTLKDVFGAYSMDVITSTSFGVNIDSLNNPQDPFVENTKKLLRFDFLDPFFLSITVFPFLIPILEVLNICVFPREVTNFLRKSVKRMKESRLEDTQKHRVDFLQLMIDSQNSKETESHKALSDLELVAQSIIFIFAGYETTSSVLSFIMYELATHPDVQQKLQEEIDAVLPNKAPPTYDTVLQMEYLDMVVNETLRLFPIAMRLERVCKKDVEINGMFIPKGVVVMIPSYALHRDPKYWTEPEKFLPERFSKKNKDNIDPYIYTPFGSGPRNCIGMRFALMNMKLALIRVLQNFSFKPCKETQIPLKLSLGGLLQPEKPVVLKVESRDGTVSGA
Cytochrome P450 2E1, sequence (P05181 whole entry): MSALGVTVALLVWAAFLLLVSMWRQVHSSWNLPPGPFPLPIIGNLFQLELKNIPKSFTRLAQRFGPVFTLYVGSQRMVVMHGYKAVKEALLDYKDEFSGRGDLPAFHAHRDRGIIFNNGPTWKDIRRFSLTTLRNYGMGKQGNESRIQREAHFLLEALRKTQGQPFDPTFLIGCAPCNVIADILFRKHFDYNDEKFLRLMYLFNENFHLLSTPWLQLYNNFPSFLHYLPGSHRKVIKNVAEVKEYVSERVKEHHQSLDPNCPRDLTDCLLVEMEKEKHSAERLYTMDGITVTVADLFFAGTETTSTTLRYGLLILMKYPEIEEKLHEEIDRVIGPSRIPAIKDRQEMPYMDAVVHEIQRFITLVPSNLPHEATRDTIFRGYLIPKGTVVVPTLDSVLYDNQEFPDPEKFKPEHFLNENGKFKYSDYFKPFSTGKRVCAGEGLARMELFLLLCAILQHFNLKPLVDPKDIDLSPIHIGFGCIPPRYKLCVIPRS
Cytochrome P450 2C9, sequence (P11712 whole entry): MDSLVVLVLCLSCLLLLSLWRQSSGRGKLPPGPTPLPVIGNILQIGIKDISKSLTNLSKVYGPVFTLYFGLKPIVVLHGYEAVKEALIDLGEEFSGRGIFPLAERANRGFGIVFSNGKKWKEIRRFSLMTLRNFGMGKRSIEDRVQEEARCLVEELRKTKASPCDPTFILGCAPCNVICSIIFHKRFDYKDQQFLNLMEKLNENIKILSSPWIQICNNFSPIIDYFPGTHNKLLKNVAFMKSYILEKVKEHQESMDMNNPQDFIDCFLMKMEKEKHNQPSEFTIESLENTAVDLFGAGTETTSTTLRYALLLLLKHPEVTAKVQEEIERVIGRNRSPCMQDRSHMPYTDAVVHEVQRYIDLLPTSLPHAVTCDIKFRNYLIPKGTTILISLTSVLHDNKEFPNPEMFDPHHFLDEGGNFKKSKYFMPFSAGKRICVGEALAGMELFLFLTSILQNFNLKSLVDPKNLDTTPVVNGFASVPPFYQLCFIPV

**Q.** With `COc1cc2c(cc1OCCCCCCC(=O)O)C[C@@H](C(C)C)n1cc(C(=O)O)c(=O)cc1-2` as the molecule, how does the IC50 (Cytochrome P450 3A4) read?
**A.** The IC50 was over 10 µM.

**Q.** What about the Kp [1] of the same molecule?
**A.** The Kp was 20.7.

**Q.** And the concentration at 0.5 h [2]?
**A.** Its concentration at 0.5 h is 309 ng/mL and 680 nM.

**Q.** And the EC50 (Hepatitis B virus)?
**A.** Its EC50 is 0.023 µM.

**Q.** What about the clearance [3] of the same molecule?
**A.** The clearance was 198 mL/min/kg.

**Q.** What about the microsomal CLint [4] of the same molecule?
**A.** Its microsomal CLint is 0.8 µL/min/mg.

**Q.** And the uptake ratio (OATP1B1)?
**A.** The uptake ratio was 19.

**Q.** And the inhibition [5]?
**A.** The inhibition was “Dose-Dependent Effect”.

**Q.** What about the AUC(0-t) at 24 h [6] of the same molecule?
**A.** Its AUC(0-t) at 24 h is 255 ng·h/mL.

**Q.** And the CC50 at 96 h [7]?
**A.** Its CC50 at 96 h is over 10 µM.

**Q.** And the concentration at 0.25 h [8]?
**A.** Its concentration at 0.25 h is 333 ng/mL and 730 nM.

**Q.** And the uptake ratio (OATP1B3)?
**A.** Its uptake ratio is 24.8.

**Q.** And the Papp A→B at 1 h, 10 µM [9]?
**A.** The Papp A→B at 1 h, 10 µM was 0.39 ×10⁻⁶ cm/s.

**Q.** What about the Papp B→A at 2 h, 1 µM [10] of the same molecule?
**A.** The Papp B→A at 2 h, 1 µM was 0.55 ×10⁻⁶ cm/s.

**Q.** And the Ratio [11]?
**A.** The Ratio was 11.17.

**Q.** What about the Papp A→B at 2 h, 1 µM [12] of the same molecule?
**A.** The Papp A→B at 2 h, 1 µM was 0.38 ×10⁻⁶ cm/s.

**Q.** What about the IC50 (Cytochrome P450 2E1) of the same molecule?
**A.** Its IC50 is over 10 µM.

**Q.** And the AUC(0-t) at 24 h [13]?
**A.** Its AUC(0-t) at 24 h is 34.7 ng·h/mL.

**Q.** And the half-life [14]?
**A.** The half-life was 1.48 h.

**Q.** What about the half-life [15] of the same molecule?
**A.** Its half-life is 28.9 h.

**Q.** What about the half-life [16] of the same molecule?
**A.** The half-life was 3.54 h.

**Q.** What about the IC50 (Cytochrome P450 2C9) of the same molecule?
**A.** The IC50 was over 10 µM.

**Q.** And the efflux ratio at 2 h, 1 µM [17]?
**A.** Its efflux ratio at 2 h, 1 µM is 1.47.
